# Patent publication US8404279B2, “Method for improving the bud quality of a plant” (Bayer CropScience AG, priority 2007, dated 2013)
# Like-named read-outs stand apart in the source and are kept apart here. Marks after values point to notes of the source that are not given here.
# Columns and labels:
# [1] = tested on: pear trees (Conference cultivar); experiment: Productivity of the pear trees after the treatments (field trial); assay type: in vivo; conditions: 2006, treated 2004 and 2005
# Protocol: (§1) During three consecutive years 2004, 2005 and 2006, a trial was carried out on young pear trees of the Conference cultivar on a Quince Adams stock. The pear trees of this orchard were planted in 1999 according to the system of a single row at a planting distance of 3.5 m between the rows and 1.5 m in the row with a tree height of 3 m.
# (§2) During the 2004 trial, three products were compared in an arbitrary block design with 10 trees per plot in four repeats: the observations were made on the 8 trees inside the plot. […] The applications were in the post-flower period at an interval of 10 days.
# (§3) In 2005, the same applications were repeated on the same trees.
# (§4) After one year during flowering, the effect of the treatments on the quality of the flower bud was evaluated. Statistical analysis of the various parameters is performed (Unistat Statistical Package, Version 5.5). The original or processed data are analyzed according to the General Linear Model and the treatment means are separated in a standard manner using the Duncan multiple classification test (5% level).
# [2] = tested on: flower bud dieback on pear trees (Conference variety); experiment: Flower bud quality field trial against flower bud dieback on young pear trees; assay type: in vivo, pear trees (Conference cultivar); conditions: for Good quality buds (%) 1 yw S: 1-year old wood side position; for Good quality buds (%) 1 yw S / Good quality buds (%) 1 yw T / Good quality buds (%) 2 yw / Good quality buds (%) Per tree: treated 2004 and 2005, 2006 flower buds; for Good quality buds (%) 1 yw T: 1-year old wood terminal position; for Good quality buds (%) 2 yw: 2-year old wood
# Protocol: as §1, §2, §3
# In 2006, the complete trial was repeated on new trees in the same orchard. The fosetyl-Al doses varying between 2 and 3.75 kg/ha of standard orchard (corresponding to doses varying from 1.33 to 2.50 kg/ha of foliar surface area) were applied in the post-flower period during the months of May and June at an interval of 5 or 10 days between the treatments. Benzothiadiazole applied at a dose of 200 g/ha of standard orchard (corresponding to a dose of 133 g/ha of foliar surface area) was included as reference product in order to induce plant defense reactions by the trees.
# as §4
# [3] = tested on: pear trees (Conference cultivar); conditions: plot treated at 3.75 kg/ha, 2004 treatments
# Source text: as §2, §3
# [4] = flower buds 2006; for Fosetyl-Al residue: 10 days
# Source text: In 2006, the magnitude of the levels of fosetyl-Al and phosphorous acid residues in the developing flower buds was monitored on three plots: in the control untreated plot, in the plot treated with fosetyl-Al based on 3×3.75 kg/ha (application on 18/05, 30/05 and 08/06) and in the plot treated with fosetyl-Al based on 6×2.0 kg/ha (application on 18/05, 30/05, 08/06, 19/06, 29/06 and 10/07).
# On each date (with the exception of the first sampling date), 40 flower buds with their surrounding leaves were gathered. On the first sampling date, 40 flower buds were gathered without leaves.
# The flower bud samples were taken before the next treatment on the following dates: 30/05, 08/06, 19/06, 28/06, 10/07 and 28/08. For the two fosetyl-Al and phosphorous acid products, the levels of residues in the flower buds were determined with the aid of an LC-MS-MS analytical method. The limit of quantification (LOQ) was 0.1 mg/kg for fosetyl-Al, 2 mg/kg for phosphorous acid and 3 mg/kg for the total residue expressed as fosetyl-Al equivalent. The total residue is the sum of the residues derived from fosetyl-Al and phosphorous acid expressed as fosetyl-Al equivalent.
# The results are calculated according to the following formula:
# [formula] in which: • Mfosetyl-Al represents the molecular weight of fosetyl-Al: 354.1 g/mol • Mphosphorous acid represents the molecular mass of phosphorous acid: 82 g/mol; multiplied by 3, since 1 mol of fosetyl-Al corresponds to 3 mol of phosphorous acid.
# For the pear bud samples, the fosetyl-Al and phosphorous acid residues are extracted with the aid of an acetonitrile/water (50:50, v/v) mixture. After centrifugation and dilution of the sampling material, the residues are quantified by HPLC and detected by tandem mass spectrometry with electrospray ionization. The quantification is performed by external standardization. The statistical analysis is performed per parameter on the complete set of data for the different sampling dates.
# [5] = 3 x 0.2 kg/ha May interval 10 + 3 x 0.2 kg/ha June interval 14
# [6] = treated 2004, 2005 flower buds, 3 x 0.2 kg/ha May interval 10 + 3 x 0.2 kg/ha June interval 14
# [7] = treated 2006, 2007 flower buds, 3 x 0.2 kg/ha May, interval 10
# [8] = 3 x 3.75 kg/ha May interval 10 + 3 x 3.75 kg/ha June interval 14, object excluded from statistical analysis
# [9] = 3 x 3.75 kg/ha May, interval 10
# [10] = 3 x 3.75 kg/ha May, primary efflorescence
# [11] = 3 x 3.75 kg/ha May interval 10 + 3 x 3.75 kg/ha June interval 14
# [12] = treated 2004, 2005 flower buds, 3 x 3.75 kg/ha May interval 10 + 1 x 3.75 kg/ha AH
# [13] = treated 2004, 2005 flower buds, 3 x 3.75 kg/ha May interval 10 + 3 x 3.75 kg/ha June interval 14
# [14] = treated 2004, 2005 flower buds, 3 x 3.75 kg/ha May, interval 10
# [15] = treated 2006, 2007 flower buds, 3 x 3.75 kg/ha June, interval 10
# [16] = treated 2006, 2007 flower buds, 3 x 3.75 kg/ha May, interval 10
# [17] = treated 2006, 2007 flower buds, 6 x 2 kg/ha June, interval 5
# [18] = treated 2006, 2007 flower buds, 6 x 2 kg/ha May, interval 5
# [19] = treated 2006, 2007 flower buds, 6 x 2 kg/ha May-June, interval 10
# [20] = treated 2004, 2005 flower buds, 3 x dose 3 (kg/ha) May, interval 10
# [21] = treated 2004, 2005 flower buds, 3 x dose 11.25 (kg/ha) May, interval 10
compound,measurement,setting,value
"c1ccc2snnc2c1 [Benzothiadiazole, benzothiadiazole]",Average weight,[1]; [5],163.2 g
same,Number of fruits/tree,[1]; [5],113.88 fruits/tree
same,Productivity (kg/tree),[1]; [5],18.5 kg/tree
same,Good quality buds (%) 1 yw S,[2]; [5],56.6%
same,Good quality buds (%) 1 yw T,[2]; [5],54.6%
same,Good quality buds (%) 2 yw,[2]; [5],58.5%
same,activity on flower bud quality,"[2]; 2004 treatments, 2005 buds, reference product",insufficient activity
same,Buds of good quality,[2]; [6],71.2%
same,Number of incomplete buds/tree,[2]; [6],22.5 buds/tree
same,Good quality buds (%) Per tree,[2]; [5],62.8%
same,Buds that have died back (%),[2]; [7],43.5%
same,Good quality buds (%),[2]; [7],44.2%
same,Number of incomplete buds/tree,[2]; [7],12.3 buds/tree
"CCO[PH](=O)O.[Al] [Fosetyl-Al, aluminum ethyl hydrogen phosphonate]",phytotoxicity,[3],absence of phytotoxicity
same,Average weight (g),[1]; [8],137.9* g
same,Number of fruits/tree,[1]; [8],152.2* fruits/tree
same,Productivity (kg/tree),[1]; [8],21* kg/tree
same,Average weight,[1]; [9],144.8 g
same,Number of fruits/tree,[1]; [9],148.8 fruits/tree
same,Productivity (kg/tree),[1]; [9],21.5 kg/tree
same,Average weight,[1]; [10],157.7 g
same,Number of fruits/tree,[1]; [10],140.4 fruits/tree
same,Productivity (kg/tree),[1]; [10],22.1 kg/tree
same,time the level of fosetyl-Al residue was maintained after the last treatment,[4]; dose of 3.75 kg/ha,approximately 4 weeks
same,Fosetyl-Al residue,"[4]; fosetyl-Al 3 x 3.75 kg/ha May, sampling 08/06",12.92 mg/kg
same,Fosetyl-Al residue,"[4]; fosetyl-Al 3 x 3.75 kg/ha May, sampling 10/07",2.14 mg/kg
same,Fosetyl-Al residue,"[4]; fosetyl-Al 3 x 3.75 kg/ha May, sampling 19/06",10.65 mg/kg
same,Fosetyl-Al residue,"[4]; fosetyl-Al 3 x 3.75 kg/ha May, sampling 28/06",10.83 mg/kg
same,Fosetyl-Al residue,"[4]; fosetyl-Al 3 x 3.75 kg/ha May, sampling 28/08",0.11 mg/kg
same,Fosetyl-Al residue,"[4]; fosetyl-Al 3 x 3.75 kg/ha May, sampling 30/05",0.1 mg/kg
same,Fosetyl-Al residue,"[4]; fosetyl-Al 6 x 2 kg/ha May-June, sampling 08/06",10.64 mg/kg
same,Fosetyl-Al residue,"[4]; fosetyl-Al 6 x 2 kg/ha May-June, sampling 10/07",2.86 mg/kg
same,Fosetyl-Al residue,"[4]; fosetyl-Al 6 x 2 kg/ha May-June, sampling 19/06",4.52 mg/kg
same,Fosetyl-Al residue,"[4]; fosetyl-Al 6 x 2 kg/ha May-June, sampling 28/06",20.56 mg/kg
same,Fosetyl-Al residue,"[4]; fosetyl-Al 6 x 2 kg/ha May-June, sampling 28/08",0.18 mg/kg
same,Fosetyl-Al residue,"[4]; fosetyl-Al 6 x 2 kg/ha May-June, sampling 30/05",0.1 mg/kg
same,Good quality buds (%) 1 yw S,[2]; [11],68.4%
same,Good quality buds (%) 1 yw S,[2]; [9],56.5%
same,Good quality buds (%) 1 yw S,[2]; [10],69.8%
same,Good quality buds (%) 1 yw T,[2]; [11],97.2%
same,Good quality buds (%) 1 yw T,[2]; [9],82.7%
same,Good quality buds (%) 1 yw T,[2]; [10],90.2%
same,Good quality buds (%) 2 yw,[2]; [11],86.1%
same,Good quality buds (%) 2 yw,[2]; [9],75.1%
same,Good quality buds (%) 2 yw,[2]; [10],68.2%
same,flower bud quality with an additional treatment after harvesting versus post-flower treatments alone,"[2]; 2004 treatments, 2005 buds",results comparable
same,Buds of good quality,[2]; [12],88.3%
same,Number of incomplete buds/tree,[2]; [12],9.2 buds/tree
same,Buds of good quality,[2]; [13],89.3%
same,Number of incomplete buds/tree,[2]; [13],7.9 buds/tree
same,Buds of good quality,[2]; [14],88.4%
same,Number of incomplete buds/tree,[2]; [14],7.9 buds/tree
same,Good quality buds (%) Per tree,[2]; [11],92.3%
same,Good quality buds (%) Per tree,"[2]; 3 x 3.75 kg/ha May interval 10 + 3 x 3.75 kg/ha June interval 14, listed as fosetyl-Al",92%
same,Good quality buds (%) Per tree,[2]; [9],85.9%
same,Good quality buds (%) Per tree,"[2]; 3 x 3.75 kg/ha May, interval 10, listed as fosetyl-Al",86%
same,Good quality buds (%) Per tree,[2]; [10],75.4%
same,Good quality buds (%) Per tree,"[2]; 3 x 3.75 kg/ha May, primary efflorescence, listed as fosetyl-Al",75%
same,percentages of flower buds that have died back or that are incomplete,"[2]; treated 2006, 2007 buds, all objects treated with fosetyl-Al",significantly reduced
same,Buds that have died back (%),[2]; [15],31.6%
same,Good quality buds (%),[2]; [15],62.5%
same,Number of incomplete buds/tree,[2]; [15],5.9 buds/tree
same,Buds that have died back (%),[2]; [16],33.4%
same,Good quality buds (%),[2]; [16],59.3%
same,Number of incomplete buds/tree,[2]; [16],7.2 buds/tree
same,Good quality buds (%),"[2]; treated 2006, 2007 flower buds, 3 x 3.75 kg/ha May, interval 10, listed as fosetyl-Al",59%
same,Buds that have died back (%),[2]; [17],31.5%
same,Good quality buds (%),[2]; [17],63.5%
same,Number of incomplete buds/tree,[2]; [17],5 buds/tree
same,Buds that have died back (%),[2]; [18],33%
same,Good quality buds (%),[2]; [18],59.6%
same,Number of incomplete buds/tree,[2]; [18],7.4 buds/tree
same,Good quality buds (%),"[2]; treated 2006, 2007 flower buds, 6 x 2 kg/ha May, interval 5, listed as fosetyl-Al",59%
same,Buds that have died back (%),[2]; [19],33.9%
same,Good quality buds (%),[2]; [19],61.2%
same,Number of incomplete buds/tree,[2]; [19],4.9 buds/tree
potassium phosphonate,Buds of good quality,[2]; [20],89.5%
same,Number of incomplete buds/tree,[2]; [20],7.2 buds/tree
same,Buds of good quality,[2]; [21],92.4%
same,Number of incomplete buds/tree,[2]; [21],4.8 buds/tree
